Laboratory results: patent publication US11484483B2, “Topical lotion having sanitizing properties” (Shear Kershman Laboratories, Inc, priority 2020, dated 2022)

Tested on: E. coli strain 25922
Experiment: Efficacy Study of E. coli Strain 25922 (coupon touch transfer to TSA plate)
Format: cell-based
Details: 60 s contact time, Rep 1 and 2
Experimental: On a coupon, 0.05 mL of the inocula (E. coli strain 25922) was added to the center of each test coupon and left to dry. Using a sterile glove, 0.05 grams of the test lotion was mechanically rubbed onto the test coupon to mimic rubbing hand sanitizer onto the skin of hands. There was a contact time of either 60 seconds or 4 hours allowed to lapse prior to placing the coupon touch transfer to the trypticase soy agar (TSA) plate. The coupon was then placed onto the TSA plate and allowed contact for 15 seconds in 3 different locations. The plates were then incubated for 24 hours at 37° C.

[1] = 0.05 grams lotion on inoculated coupon, TNTC = Too Numerous to Count

Structure (SMILES): CC(C)O [Control 17, isopropyl alcohol]
- Placement 1/CFU [1]: 0 CFU
- Placement 2/CFU [1]: 0 CFU
- Placement 3/CFU [1]: 0 CFU
- Log Reduction (Criteria ~5 Log Reduction in 60 sec.): 6 Log
